Laboratory results from ChEMBL document CHEMBL3627685, “Identification of a molecular target of kurahyne, an apoptosis-inducing lipopeptide from marine cyanobacterial assemblages” (Bioorg Med Chem Lett, 2015).
Calls of active or inactive are those of the source. No cut-off for these calls is given here. Starred links: 1 amine or outer side, 2 acyl side, 3 side chain; linkers in the order of their positions; H or OH if unused. Non-standard residues stand in square brackets, D forms with d. Residues, ends and D or L forms follow the SMILES beside them. *: point of attachment. X2 = O=C(O)c1cc(N*)ccc1-c1c2ccc(=O)cc-2oc2cc(O)ccc12; Pyrrolidine(2S-propanoyl) = CCC(=O)[C@@H]1CCCN1*; Biotin = O=C1N[C@H]2[C@H](CS[C@H]2CCCCC(=O)*)N1; X3 = C/C(=C\CCCc1cn(CCCN[*:1])nn1)C(=O)[*:2]; NMeI = CC[C@H](C)[C@H](NC)C(=O)O; PEG4 = NCCOCCOCCOCCOCCC(=O)O; NMeV = CN[C@H](C(=O)O)C(C)C; CO = O=C([*:1])[*:2]

Legend:
HeLa [1] = experiment: Induction of endoplasmic reticulum stress in human HeLa cells assessed as upregulation of Bip mRNA expression at 100 uM after 6 hrs by RT-PCR analysis; format: functional, cell-based
HeLa S3 [2] = experiment: Induction of Ca2+ release from endoplasmic reticulum into cytosol in human HeLaS3 cells at 1 uM by fura-2/AM-based spectrofluorometric analysis; format: functional, cell-based
HeLa [3] = experiment: Induction of endoplasmic reticulum stress in human HeLa cells assessed as upregulation of Bip mRNA expression at 1 uM after 6 hrs by RT-PCR analysis; format: functional, cell-based
HeLa [4] = experiment: Induction of endoplasmic reticulum stress in human HeLa cells assessed as upregulation of CHOP mRNA expression at 1 uM after 6 hrs by RT-PCR analysis; format: functional, cell-based
[5] = biological target: Sarcoplasmic/endoplasmic reticulum calcium ATPase 1 (Oryctolagus cuniculus) (UniProt P04191); experiment: Inhibition of ATPase activity of SERCA1a in rabbit sarcoplasmic reticulum vesicles at 30 uM measured for 3 mins by lactate dehydrogenase/pyruvate kinase coupled assay
Chain of Sarcoplasmic/endoplasmic reticulum calcium ATPase 1 (Oryctolagus cuniculus) (P04191 whole entry): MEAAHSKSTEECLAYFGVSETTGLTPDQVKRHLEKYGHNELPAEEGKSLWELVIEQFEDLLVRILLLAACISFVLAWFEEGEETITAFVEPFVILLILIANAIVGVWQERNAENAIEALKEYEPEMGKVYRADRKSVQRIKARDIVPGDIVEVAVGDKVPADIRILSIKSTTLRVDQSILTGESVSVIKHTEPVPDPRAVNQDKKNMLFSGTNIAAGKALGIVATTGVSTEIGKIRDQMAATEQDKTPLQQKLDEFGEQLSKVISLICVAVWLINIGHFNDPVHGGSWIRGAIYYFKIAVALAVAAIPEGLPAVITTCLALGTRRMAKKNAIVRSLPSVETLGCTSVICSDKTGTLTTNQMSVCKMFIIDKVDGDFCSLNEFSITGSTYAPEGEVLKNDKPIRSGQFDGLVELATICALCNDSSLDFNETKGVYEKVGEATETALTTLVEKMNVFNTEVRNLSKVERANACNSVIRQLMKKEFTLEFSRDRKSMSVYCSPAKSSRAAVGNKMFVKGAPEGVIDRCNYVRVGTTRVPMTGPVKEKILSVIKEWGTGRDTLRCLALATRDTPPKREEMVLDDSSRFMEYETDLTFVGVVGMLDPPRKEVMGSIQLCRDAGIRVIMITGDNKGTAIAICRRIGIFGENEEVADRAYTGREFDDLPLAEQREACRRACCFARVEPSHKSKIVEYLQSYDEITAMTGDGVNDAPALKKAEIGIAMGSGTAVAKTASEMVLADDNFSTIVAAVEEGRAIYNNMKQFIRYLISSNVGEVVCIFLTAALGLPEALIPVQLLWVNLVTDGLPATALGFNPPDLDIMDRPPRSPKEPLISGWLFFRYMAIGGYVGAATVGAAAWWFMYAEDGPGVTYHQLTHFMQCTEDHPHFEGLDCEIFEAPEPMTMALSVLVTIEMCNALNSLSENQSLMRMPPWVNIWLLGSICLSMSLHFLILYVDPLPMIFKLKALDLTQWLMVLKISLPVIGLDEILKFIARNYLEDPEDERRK

HeLa S3 [6] = experiment: Induction of Ca2+ release from endoplasmic reticulum into cytosol in human HeLaS3 cells at 10 uM by fura-2/AM-based spectrofluorometric analysis; format: functional, cell-based
NCI-H522 = experiment: Cytotoxicity against human NCI-H522 cells assessed as growth inhibition by sulforhodamine B assay; format: functional
NCI-H460 = experiment: Cytotoxicity against human NCI-H460 cells assessed as growth inhibition by sulforhodamine B assay; format: functional
A549 = experiment: Cytotoxicity against human A549 cells assessed as growth inhibition by sulforhodamine B assay; format: functional
[7] = Cytotoxicity against human DMS273 cells assessed as growth inhibition by sulforhodamine B assay; format: functional; details: DMS-273
[8] = Cytotoxicity against human DMS114 cells assessed as growth inhibition by sulforhodamine B assay; format: functional; details: DMS-114
LOX IMVI = experiment: Cytotoxicity against human LOXIMVI cells assessed as growth inhibition by sulforhodamine B assay; format: functional
OVCAR-3 = experiment: Cytotoxicity against human OVCAR3 cells assessed as growth inhibition by sulforhodamine B assay; format: functional
OVCAR-4 = experiment: Cytotoxicity against human OVCAR4 cells assessed as growth inhibition by sulforhodamine B assay; format: functional
OVCAR-5 = experiment: Cytotoxicity against human OVCAR5 cells assessed as growth inhibition by sulforhodamine B assay; format: functional
OVCAR-8 = experiment: Cytotoxicity against human OVCAR8 cells assessed as growth inhibition by sulforhodamine B assay; format: functional
SK-OV-3 = experiment: Cytotoxicity against human SKOV3 cells assessed as growth inhibition by sulforhodamine B assay; format: functional
[9] = Cytotoxicity against human RXF631L cells assessed as growth inhibition by sulforhodamine B assay; format: functional; details: RXF 631
ACHN = experiment: Cytotoxicity against human ACHN cells assessed as growth inhibition by sulforhodamine B assay; format: functional
St-4 = experiment: Cytotoxicity against human St-4 cells assessed as growth inhibition by sulforhodamine B assay; format: functional
[10] = Cytotoxicity against human MKN1 cells assessed as growth inhibition by sulforhodamine B assay; format: functional; details: MKN-1
[11] = Cytotoxicity against human MKN7 cells assessed as growth inhibition by sulforhodamine B assay; format: functional; details: MKN-7
[12] = Cytotoxicity against human MKN28 cells assessed as growth inhibition by sulforhodamine B assay; format: functional; details: MKN-28
[13] = Cytotoxicity against human MKN45 cells assessed as growth inhibition by sulforhodamine B assay; format: functional; details: MKN-45
[14] = Cytotoxicity against human MKN74 cells assessed as growth inhibition by sulforhodamine B assay; format: functional; details: MKN-74
DU-145 = experiment: Cytotoxicity against human DU145 cells assessed as growth inhibition by sulforhodamine B assay; format: functional
PC-3 = experiment: Cytotoxicity against human PC3 cells assessed as growth inhibition by sulforhodamine B assay; format: functional
HeLa S3 [15] = experiment: Induction of Ca2+ release from endoplasmic reticulum into cytosol in human HeLaS3 cells by fura-2/AM-based spectrofluorometric analysis; format: functional, cell-based
HeLa [16] = experiment: Induction of endoplasmic reticulum stress in human HeLa cells assessed as upregulation of Bip mRNA expression at 10 uM after 6 hrs by RT-PCR analysis; format: functional, cell-based
HeLa [17] = experiment: Induction of endoplasmic reticulum stress in human HeLa cells assessed as upregulation of CHOP mRNA expression at 10 uM after 6 hrs by RT-PCR analysis; format: functional, cell-based
[18] = biological target: Sarcoplasmic/endoplasmic reticulum calcium ATPase 1 (Oryctolagus cuniculus) (UniProt P04191); experiment: Inhibition of ATPase activity of SERCA1a in rabbit sarcoplasmic reticulum vesicles measured for 3 mins by lactate dehydrogenase/pyruvate kinase coupled assay
[19] = Cytotoxicity against mouse BMDM assessed as growth inhibition after 72 hrs by MTT assay
HeLa [20] = experiment: Cytotoxicity against human HeLa cells assessed as growth inhibition after 72 hrs by MTT assay; format: functional, cell-based
HL-60 = experiment: Cytotoxicity against human HL60 cells assessed as growth inhibition after 72 hrs by MTT assay; format: functional, cell-based; details: HL-60, 72 h
[21] = Cytotoxicity against human HBC4 cells assessed as growth inhibition by sulforhodamine B assay; format: functional
[22] = Cytotoxicity against human BSY1 cells assessed as growth inhibition by sulforhodamine B assay; format: functional; details: BSY-1
[23] = Cytotoxicity against human HBC5 cells assessed as growth inhibition by sulforhodamine B assay; format: functional
MCF7 = experiment: Cytotoxicity against human MCF7 cells assessed as growth inhibition by sulforhodamine B assay; format: functional
MDA-MB-231 = experiment: Cytotoxicity against human MDA-MB-231 cells assessed as growth inhibition by sulforhodamine B assay; format: functional
U-251 = experiment: Cytotoxicity against human U251 cells assessed as growth inhibition by sulforhodamine B assay; format: functional
SF-268 = experiment: Cytotoxicity against human SF268 cells assessed as growth inhibition by sulforhodamine B assay; format: functional
SF-295 = experiment: Cytotoxicity against human SF295 cells assessed as growth inhibition by sulforhodamine B assay; format: functional
SF-539 = experiment: Cytotoxicity against human SF539 cells assessed as growth inhibition by sulforhodamine B assay; format: functional
SNB-75 = experiment: Cytotoxicity against human SNB75 cells assessed as growth inhibition by sulforhodamine B assay; format: functional
[24] = Cytotoxicity against human SNB78 cells assessed as growth inhibition by sulforhodamine B assay; format: functional; details: SNB-78
HCC 2998 = experiment: Cytotoxicity against human HCC2998 cells assessed as growth inhibition by sulforhodamine B assay; format: functional
KM12 = experiment: Cytotoxicity against human KM12 cells assessed as growth inhibition by sulforhodamine B assay; format: functional
HT-29 = experiment: Cytotoxicity against human HT-29 cells assessed as growth inhibition by sulforhodamine B assay; format: functional
HCT-15 = experiment: Cytotoxicity against human HCT15 cells assessed as growth inhibition by sulforhodamine B assay; format: functional
HCT-116 = experiment: Cytotoxicity against human HCT116 cells assessed as growth inhibition by sulforhodamine B assay; format: functional
NCI-H23 = experiment: Cytotoxicity against human NCI-H23 cells assessed as growth inhibition by sulforhodamine B assay; format: functional
NCI-H226 = experiment: Cytotoxicity against human NCI-H226 cells assessed as growth inhibition by sulforhodamine B assay; format: functional
HeLa [25] = experiment: Binding affinity to SERCA in human HeLa cells at […] after 12 hrs by immunoblot analysis; format: cell-based
[26] = Drug uptake in endoplasmic reticulum in human HeLa cells at 10 uM after 6 hrs by DsRed/DAPI dye-based fluorescence microscopic analysis; format: ADME, cell-based

In the case of `C#CCCC/C=C(\C)C(=O)N(C)[C@H](C(=O)N(C)[C@H](C(=O)N(C)[C@H](C(=O)N(C)[C@H](C(=O)N1CCC[C@H]1C(=O)N1CCC[C@H]1/C(CC)=N/OCC(=O)NCCCCCNC(=S)Nc1ccc(-c2c3ccc(=O)cc-3oc3cc(O)ccc23)c(C(=O)O)c1)C(C)C)C(C)C)[C@@H](C)CC)[C@@H](C)CC`, the Activity (HeLa [1]) is reported as “inactive”.

With `C/C=C(/C)C(=O)O[C@H]1C(C)=C2[C@H]([C@@H]1OC(=O)CCCCCCC)[C@@](C)(OC(C)=O)C[C@H](OC(=O)CCC)[C@@]1(O)[C@H]2OC(=O)[C@@]1(C)O` the Activity (HeLa S3 [2]) was “Active”, the Activity (HeLa [3]) was “Active” and the Activity (HeLa [4]) was “Active”. For the same compound, the inhibition [5] was “Active”.

With `CC(=O)C1=C(O)[C@@H]2[C@H]3c4c[nH]c5cccc(c45)C[C@H]3C(C)(C)N2C1=O` the Activity (HeLa S3 [6]) was “Active”.

`C#CCCC/C=C(\C)C(=O)N(C)[C@H](C(=O)N(C)[C@H](C(=O)N(C)[C@H](C(=O)N(C)[C@H](C(=O)N1CCC[C@H]1C(=O)N1CCC[C@H]1C(=O)CC)C(C)C)C(C)C)[C@@H](C)CC)[C@@H](C)CC` (HELM PEPTIDE1{[C#CCCC/C=C(\C)C(=O)[*:2]].[meI].[meI].[meV].[meV].P.[CCC(=O)[C@@H]1CCCN1[*:1]]}$$$$V2.0) showed a GI50 (NCI-H522) of 2.4 µM, a GI50 (NCI-H460) of 9.55 µM and a GI50 (A549) of 7.24 µM. For the same compound, the GI50 [7] was 5.5 µM, the GI50 [8] was 4.9 µM and the GI50 (LOX IMVI) was 3.89 µM. The GI50 (OVCAR-3) was 6.61 µM, the GI50 (OVCAR-4) was 11 µM and the GI50 (OVCAR-5) was 11.2 µM. The GI50 (OVCAR-8) was 14.5 µM, the GI50 (SK-OV-3) was 11.2 µM and the GI50 [9] was 5.89 µM. For the same compound, the GI50 (ACHN) was 13.5 µM, the GI50 (St-4) was 13.2 µM and the GI50 [10] was 15.1 µM. For the same compound, the GI50 [11] was 7.41 µM, the GI50 [12] was 12.9 µM and the GI50 [13] was 7.94 µM. It also gave a GI50 [14] of 3.72 µM, a GI50 (DU-145) of 13.8 µM and a GI50 (PC-3) of 4.47 µM. For the same compound, the Activity (HeLa S3 [15]) was “Dose-dependent effect”, the Activity (HeLa [16]) was “Active” and the Activity (HeLa [17]) was “Active”. The inhibition [18] was “Dose-dependent effect”, the IC50 [19] was 1.96 µM and the IC50 (HeLa [20]) was 3.9 µM. It also gave an IC50 (HL-60) of 1.5 µM, a GI50 [21] of 12.3 µM and a GI50 [22] of 3.09 µM. The GI50 [23] was 10.5 µM, the GI50 (MCF7) was 3.98 µM and the GI50 (MDA-MB-231) was 4.17 µM. It also gave a GI50 (U-251) of 8.32 µM, a GI50 (SF-268) of 5.62 µM and a GI50 (SF-295) of 10.7 µM. It also gave a GI50 (SF-539) of 10 µM, a GI50 (SNB-75) of 14.5 µM and a GI50 [24] of 16.6 µM. It also gave a GI50 (HCC 2998) of 14.8 µM, a GI50 (KM12) of 12.9 µM and a GI50 (HT-29) of 4.47 µM. It also gave a GI50 (HCT-15) of 11.5 µM, a GI50 (HCT-116) of 5.13 µM and a GI50 (NCI-H23) of 13.8 µM. The GI50 (NCI-H226) was 7.24 µM.

In the case of `CCC(=O)[C@@H]1CCCN1C(=O)[C@@H]1CCCN1C(=O)[C@H](C(C)C)N(C)C(=O)[C@H](C(C)C)N(C)C(=O)[C@H]([C@@H](C)CC)N(C)C(=O)[C@H]([C@@H](C)CC)N(C)C(=O)/C(C)=C/CCCc1cn(CCCNC(=O)CCOCCOCCOCCOCCNC(=O)CCCC[C@@H]2SC[C@@H]3NC(=O)N[C@@H]32)nn1` ({Biotin-PEG4}-[X3][NMeI][NMeI][NMeV][NMeV]P-{Pyrrolidine(2S-propanoyl)}), the Activity (HeLa [25]) is reported as “Active”.

In the case of `CCC(=O)[C@@H]1CCCN1C(=O)[C@@H]1CCCN1C(=O)[C@H](C(C)C)N(C)C(=O)[C@H](C(C)C)N(C)C(=O)[C@H]([C@@H](C)CC)N(C)C(=O)[C@H]([C@@H](C)CC)N(C)C(=O)/C(C)=C/CCCc1cn(CCCNC(=O)Nc2ccc(-c3c4ccc(=O)cc-4oc4cc(O)ccc34)c(C(=O)O)c2)nn1` ({X2-CO}-[X3][NMeI][NMeI][NMeV][NMeV]P-{Pyrrolidine(2S-propanoyl)}), the Activity (HeLa [1]) is reported as “Active” and the Drug uptake [26] is reported as “Active”.
